{"source": "patent US6150393A", "about": "(priority 1999, dated 2000)", "key": {"[1]": {"assay_type": "in vivo, rat (male Sprague-Dawley)", "description": "FIG. 7 provides a graphic summary of the reversal of MK-801-induced hyperactivity using 116081 (7A) and clozapine (7B). […] 116081 produced a significant reversal of the effect of MK-801 at a dose of 25 μmol/kg (10 mg/kg). Results are presented as total activity counts over the 120 min of exposure to the locomotor activity apparatus after administration of MK-801. Data (mean±SEM) were analyzed by ANOVA followed by Dunnett's test (n=6-8/group).\nBecause part of the symptomatology of schizophrenia may be related to altered glutamate transmission at the NMDA receptor, the reversal of MK-801-induced hyperlocomotor activity in rodents has been used routinely as an animal model for detecting potential antipsychotic activity (O'Neill et al., Pharmacology Biochem. Behav., 63: 237-243, 1999). Thus, this test was used to determine potential antipsychotic properties of 116081 in vivo.\nMotor activity was assessed using automated locomotor activity cages as described above (Example 11(A), supra.). Male Sprague-Dawley rats (250-350 g body weight) were administered test compounds (i.p.) and placed in the locomotor activity cages for 30 min of habituation. Following habituation,animals were administered MK-801 (0.5 μmol/kg=0.17 mg/kg, s.c.) and then immediately placed back into the locomotor activity cages, and activity was measured for 120 min. A reversal of MK-801-induced motor activity (as shown by a significant […] of ambulation) in rats is considered to be predictive of the ability of the test compound to reverse psychotic symptoms."}, "[2]": {"test": "DOI inhibition study in rats, oral administration of test compound (oral availability)", "assay_type": "in vivo, rat", "conditions": "in vivo; rat; 50 mg/kg oral vs 10 mg/kg i.p., inferred from DOI test", "description": "(§1) FIG. 6 provides a graphic summary of the effects of oral administration of 116082 and 116081 in a DOI inhibition study in rats. Values represent the mean±SEMs (n=6/group). #P<0.05 vs. vehicle/vehicle, *P<0.05 vs. vehicle/DOI, Student t-test.\n(§2) Based upon the in vivo data developed, oral bioavailability of compounds […] was considered. The compounds were administered by oral gavage at a dose of 50 mg/kg, 30 min prior to DOI in rats (see Example 11A, supra). Animals were placed in the locomotor activity cages 10 min after DOI administration and activity was measured for 10 min. Results, presented in FIG. 6, provide total activity counts over the 10 min of exposure to the locomotor activity apparatus."}, "5HT2 receptors": {"tested_on": "5HT2 receptors", "test": "DOI inhibition study in rats, oral administration of test compound (oral availability)", "assay_type": "in vivo, rat", "description": "as §1, §2"}}}
{"smiles": "Cn1cc(Br)c(-c2cccc(NC(=O)Nc3ccc(Cl)cc3)c2)n1", "note": "[Compound 116081, N-[3-(4-bromo-1-methylpyrazol-3-yl)phenyl][(4-chlorophenyl)amino]carboxamide]", "values": [{"measurement": "efficacy in reversing motor activity induced by MK-801, compared with clozapine", "setting": "[1]; FIGS. 7A and 7B", "result": "equiefficacious to the atypical antipsychotic clozapine"}, {"measurement": "attenuation of MK-801-induced hyperactivity (ambulations)", "setting": "[1]; i.p., total activity counts over 120 min after MK-801", "result": "dose-dependently attenuated MK801-induced hyperactivity"}, {"measurement": "bioavailability", "setting": "[2]", "result": "≥ 20", "unit": "%"}, {"measurement": "oral efficacy compared with intraperitoneal administration", "setting": "5HT2 receptors; 50 mg/kg oral vs 10 mg/kg i.p.", "result": "as efficacious as a 10 mg/kg dose of the same compounds administered intraperitoneally"}, {"measurement": "reversal of DOI-induced motor dysfunction, oral", "setting": "5HT2 receptors; oral gavage 50 mg/kg, 30 min prior to DOI", "result": "reversed DOI-induced motor dysfunction in rats"}, {"measurement": "oral activity", "setting": "5HT2 receptors; rat, DOI test, 50 mg/kg oral", "result": "orally active"}]}
